Reference: ChEMBL document CHEMBL1129143, “Synthesis and acetylcholinesterase inhibitory activity of fluorinated analogues of huperzine A” (Bioorg Med Chem Lett, 1996)

Molecular target: Acetylcholinesterase (Homo sapiens, UniProt P22303)
Test: In vitro inhibitory activity against Acetylcholinesterase (AChE).

Acetylcholinesterase, sequence (P22303 whole entry): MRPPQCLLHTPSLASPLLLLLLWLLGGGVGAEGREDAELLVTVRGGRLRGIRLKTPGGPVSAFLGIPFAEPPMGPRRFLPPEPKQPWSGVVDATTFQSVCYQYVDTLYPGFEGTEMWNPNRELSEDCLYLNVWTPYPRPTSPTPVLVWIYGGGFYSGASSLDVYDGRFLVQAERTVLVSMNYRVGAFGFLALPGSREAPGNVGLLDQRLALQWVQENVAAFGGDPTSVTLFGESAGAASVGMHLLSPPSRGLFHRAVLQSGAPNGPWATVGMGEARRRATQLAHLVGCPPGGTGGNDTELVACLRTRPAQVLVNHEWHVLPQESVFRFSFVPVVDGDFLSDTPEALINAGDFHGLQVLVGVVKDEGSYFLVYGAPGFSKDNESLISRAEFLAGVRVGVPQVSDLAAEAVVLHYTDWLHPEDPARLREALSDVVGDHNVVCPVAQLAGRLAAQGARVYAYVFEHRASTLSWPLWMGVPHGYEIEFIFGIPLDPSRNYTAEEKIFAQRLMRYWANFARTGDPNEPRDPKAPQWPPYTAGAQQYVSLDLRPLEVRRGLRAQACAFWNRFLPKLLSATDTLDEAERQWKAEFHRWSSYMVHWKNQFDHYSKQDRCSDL

| SMILES | IC50 [nM] |
| --- | --- |
| NC12CC(C(F)(F)F)=CC(Cc3nc(O)ccc31)/C2=C\C(F)(F)F (stereo not drawn) | 3000 |
| CC1=CC2Cc3nc(O)ccc3C(N)(C1)/C2=C/C(F)(F)F (stereo not drawn) | 2000 |
| C/C=C1\C2C=C(C(F)(F)F)CC1(N)c1ccc(=O)[nH]c1C2 (stereo not drawn) | 400 |
